Source: ChEMBL document CHEMBL1130772, “New nonsteroidal androgen receptor modulators based on 4-(trifluoromethyl)-2(1H)-pyrrolidino[3,2-g] quinolinone” (Bioorg Med Chem Lett, 1998)

How the values were obtained:
Androgen receptor [1] = biological target: T1, Androgen receptor (Homo sapiens, UniProt P10275); conditions: cv-1
T1 sequence (P10275 whole entry): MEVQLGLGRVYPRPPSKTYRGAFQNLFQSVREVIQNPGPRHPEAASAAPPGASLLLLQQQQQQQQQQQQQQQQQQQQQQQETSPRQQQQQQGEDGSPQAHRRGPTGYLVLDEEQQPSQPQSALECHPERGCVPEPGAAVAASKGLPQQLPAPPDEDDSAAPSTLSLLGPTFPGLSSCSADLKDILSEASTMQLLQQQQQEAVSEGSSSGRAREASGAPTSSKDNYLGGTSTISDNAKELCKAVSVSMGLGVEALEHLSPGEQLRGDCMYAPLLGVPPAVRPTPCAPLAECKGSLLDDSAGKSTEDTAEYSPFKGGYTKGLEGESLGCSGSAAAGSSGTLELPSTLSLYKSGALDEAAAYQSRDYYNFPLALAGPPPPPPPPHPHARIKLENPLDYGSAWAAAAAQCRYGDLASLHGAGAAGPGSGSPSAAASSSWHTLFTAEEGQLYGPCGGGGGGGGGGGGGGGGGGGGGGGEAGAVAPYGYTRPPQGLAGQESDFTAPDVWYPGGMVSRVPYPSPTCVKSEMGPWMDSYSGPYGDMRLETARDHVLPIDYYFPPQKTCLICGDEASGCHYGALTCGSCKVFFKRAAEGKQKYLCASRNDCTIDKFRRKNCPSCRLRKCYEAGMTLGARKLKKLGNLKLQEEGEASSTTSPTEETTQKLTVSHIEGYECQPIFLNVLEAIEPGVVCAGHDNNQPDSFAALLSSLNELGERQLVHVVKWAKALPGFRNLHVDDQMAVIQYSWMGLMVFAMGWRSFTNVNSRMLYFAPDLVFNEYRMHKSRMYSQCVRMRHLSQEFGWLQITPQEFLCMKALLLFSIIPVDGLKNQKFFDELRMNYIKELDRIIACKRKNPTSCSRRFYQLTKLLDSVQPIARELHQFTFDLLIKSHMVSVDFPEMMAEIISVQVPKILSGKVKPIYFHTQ
Description: Agonistic activity against human androgen receptor (hAR) in co-transfected CV-1 cell

Androgen receptor [2] = biological target: T1, Androgen receptor
Description: Antagonistic activity (IC50) against human androgen receptor (hAR) in co-transfected CV-1 cell

Androgen receptor [3] = biological target: T1, Androgen receptor; assay: Binding affinity against Androgen receptor transfected into COS cells
[4] = biological target: T2, Glucocorticoid receptor (Homo sapiens) (UniProt P04150); assay: Antagonistic activity against Glucocorticoid receptor in co-transfected CV-1 cell; type: functional, cell-based
T2 sequence (whole entry): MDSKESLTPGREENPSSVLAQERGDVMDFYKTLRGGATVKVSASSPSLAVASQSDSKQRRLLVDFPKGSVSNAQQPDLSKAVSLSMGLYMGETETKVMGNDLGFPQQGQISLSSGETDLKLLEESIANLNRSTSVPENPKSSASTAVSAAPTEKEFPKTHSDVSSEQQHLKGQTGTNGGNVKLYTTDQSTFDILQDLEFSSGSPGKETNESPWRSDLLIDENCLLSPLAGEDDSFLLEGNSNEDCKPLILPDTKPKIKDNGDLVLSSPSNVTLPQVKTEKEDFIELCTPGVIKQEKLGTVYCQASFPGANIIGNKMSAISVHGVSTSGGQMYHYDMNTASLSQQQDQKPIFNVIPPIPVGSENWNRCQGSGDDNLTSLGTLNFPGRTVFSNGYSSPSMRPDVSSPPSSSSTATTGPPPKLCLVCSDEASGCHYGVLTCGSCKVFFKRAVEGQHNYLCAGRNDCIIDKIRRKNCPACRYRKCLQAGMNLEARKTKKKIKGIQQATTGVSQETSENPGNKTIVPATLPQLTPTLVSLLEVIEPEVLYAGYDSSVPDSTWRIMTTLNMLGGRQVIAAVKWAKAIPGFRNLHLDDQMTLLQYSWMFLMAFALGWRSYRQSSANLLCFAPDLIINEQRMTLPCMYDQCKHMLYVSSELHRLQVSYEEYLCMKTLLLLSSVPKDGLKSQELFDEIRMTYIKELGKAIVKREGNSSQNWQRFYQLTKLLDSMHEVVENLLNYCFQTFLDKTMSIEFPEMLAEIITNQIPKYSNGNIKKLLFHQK

Estrogen receptor = Estrogen receptor (Homo sapiens, UniProt Q92731+P03372); assay: Antagonistic activity against Estrogen receptor in co-transfected CV-1 cell; type: functional, cell-based
[5] = biological target: T3, Mineralocorticoid receptor (Homo sapiens) (UniProt P08235); assay: Antagonistic activity against hMR in co-transfected CV-1 cell; type: functional, cell-based
T3 sequence (whole entry): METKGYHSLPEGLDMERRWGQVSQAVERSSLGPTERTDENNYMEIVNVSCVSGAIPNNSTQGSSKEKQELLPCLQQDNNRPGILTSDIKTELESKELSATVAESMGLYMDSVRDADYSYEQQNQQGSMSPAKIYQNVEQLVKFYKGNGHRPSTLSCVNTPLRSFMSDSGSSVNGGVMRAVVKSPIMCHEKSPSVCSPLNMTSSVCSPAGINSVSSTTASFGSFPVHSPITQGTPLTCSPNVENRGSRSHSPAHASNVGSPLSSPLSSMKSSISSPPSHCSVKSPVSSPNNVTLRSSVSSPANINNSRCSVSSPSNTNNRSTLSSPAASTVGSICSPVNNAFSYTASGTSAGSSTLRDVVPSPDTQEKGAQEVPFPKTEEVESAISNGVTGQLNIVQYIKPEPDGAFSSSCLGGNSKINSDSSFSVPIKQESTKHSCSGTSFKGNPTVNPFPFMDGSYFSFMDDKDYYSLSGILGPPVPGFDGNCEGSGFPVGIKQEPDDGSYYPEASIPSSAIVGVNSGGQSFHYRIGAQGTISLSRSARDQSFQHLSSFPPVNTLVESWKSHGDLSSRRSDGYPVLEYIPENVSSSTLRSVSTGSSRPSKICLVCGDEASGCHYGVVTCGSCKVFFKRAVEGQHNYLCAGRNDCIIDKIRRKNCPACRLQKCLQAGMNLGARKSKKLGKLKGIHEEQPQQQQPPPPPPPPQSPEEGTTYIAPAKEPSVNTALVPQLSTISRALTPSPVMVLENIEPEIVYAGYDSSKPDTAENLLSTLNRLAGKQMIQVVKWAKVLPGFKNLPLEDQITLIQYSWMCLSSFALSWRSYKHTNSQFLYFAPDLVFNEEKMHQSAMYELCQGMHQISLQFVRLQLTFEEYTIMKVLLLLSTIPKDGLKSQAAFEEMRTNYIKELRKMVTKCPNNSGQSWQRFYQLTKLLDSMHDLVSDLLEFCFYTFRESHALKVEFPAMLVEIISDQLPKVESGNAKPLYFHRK

Row | Structure (SMILES) | EC50 (Androgen receptor [1]) | IC50 (Androgen receptor [2]) [nM] | Ki (Androgen receptor [3]) [nM] | Efficacy [4] [%] | Efficacy (Estrogen receptor) [%] | Efficacy [5] [%]
1 | CC1(C)CCC[C@]2(C)c3cc4c(C(F)(F)F)cc(O)nc4cc3N[C@H]12 | Not Active | 51 | 77 | 31 | < 20 | 77
2 | CN1c2cc3c(cc2[C@H]2CCCC[C@H]21)c(C(F)(F)F)cc(=O)n3C | Not Active | 36 | 10 | < 20 | < 20 | < 20
3 | C[C@H]1CC[C@H]2Nc3cc4c(cc3[C@H]2C1)c(C(F)(F)F)cc(=O)n4C | Not Active | 48 | 94 | < 20 | < 20 | < 20
